Test results taken from patent US11638709B2, “Rucaparib, Talazoparib, Veliparib, Olaparib and AZD 2461 for treating impaired skin wound healing” (AKRIBES BIOMEDICAL GMBH, priority 2017, dated 2023).
Entries after “also recorded” stand apart in the source; their conditions may differ.

Columns and labels:
[1] = system: primary human dermal fibroblasts (HDF); experiment: Fibroblast-derived matrix (FDM) formation assay (3D) with wound exudate; format: cell-based; details: for 3D fibroblast culture (FDM formation), effect of PARP inhibitors: FIG. 7, WE from patient #78
Description: HDF cells were seeded at 5000 cells/well on day −3 into 96-well tissue culture plates (1250 cells/well for 384-well plates), which had been pre-coated for 1 hour at 37° C. with 0.2% gelatin solution (Sigma). When the cells reached confluence (=day 0), a matrix promoting supplement (vitamin C: 2-phospho-L-ascorbic acid trisodium salt, 100 μg/ml; Sigma) was added together with test samples containing PDGF-BB, TGF-ß1 or graded concentrations of compounds −/+WE as described for the HDF proliferation assay. After 4 days, medium was replaced by fresh vitamin C—and stimulus—as well as compound-containing medium, maintaining the conditions initiated on day 0. TGF-ß1 and PDGF-BB were included as positive controls to promote FDM formation and cell growth, respectively. After a total incubation time of 8 days, FDM production was measured in fixed cultures via SRB staining and evaluated as described above. In some cases, the experiment was stopped and evaluated already on day 4.
(§1) Low molecular weight compounds (see list in Table 1) were dissolved in DMSO (Bioreagent for cell culture, Sigma) at 10 mM or 100 mM and diluted at least 1:1000 in medium for cellular assays (final DMSO concentration ≤0.1%).
(§2) Cells were incubated with compounds for 72 hours in proliferation assays and up to 8 days for FDM assay (refreshed after 4 days). When compounds were tested for their effect on WE stimulation, the incubation of cells with compounds was started and ended simultaneously with WE-incubation.

[2] = system: primary human dermal fibroblasts (HDF); experiment: Primary human dermal fibroblast (HDF) proliferation assay (2D) with or without wound exudate; format: cell-based; details: for fibroblast proliferation in the absence of WE: FIG. 11, 2D fibroblast culture without WE (control); for HDF proliferation in the presence of WE #78, combined with PDGF / HDF proliferation in the presence of WE #78 / HDF proliferation in the absence of WE: FIG. 14; for HDF proliferation in the presence of WE #78, combined with PDGF: plus PDGF 20 ng/ml; for HDF proliferation in the presence of WE #78 / HDF proliferation in the absence of WE: veliparib 10 μM, talazoparib 1 μM, PDGF 20 ng/ml; for HDF proliferation in the absence of WE / effect on PDGF-induced induction of proliferation in the absence of WE: no WE; for HDF proliferation with wound exudate #78, plus PDGF / HDF proliferation with wound exudate #78: FIG. 15; for HDF proliferation with wound exudate #78, plus PDGF: compound + PDGF 20 ng/ml in medium + WE #78; for HDF proliferation with wound exudate #78: compound in medium + WE #78; for wound exudate-induced inhibition of fibroblast proliferation: FIG. 20, with wound exudate; for effect on PDGF-induced induction of proliferation in the absence of WE: with PDGF
Description: Primary human dermal fibroblasts (HDF) were purchased from CELLnTEC, Bern. They were routinely grown in Dulbecco's modified Eagle's medium (DMEM) containing 10% FCS, 2 mM glutamine, and 100 U/ml penicillin/100 μg/ml streptomycin. Media, antibiotics, and glutamine were bought from Lonza. The cells were used at passage 5-15. Cells were trypsinized and seeded at 5000 cells/well in 200 μl into the inner wells of 96-well plates. The outer wells were loaded with sterile water. The cells were allowed to adhere overnight and then incubated for 72 hours at 37° C. under the following conditions: graded compound concentrations or 20 ng/ml PDGF-BB (Tonbo Biosciences) in the absence or presence of different dilutions of sterile-filtered WE in medium. For control samples, 200 μl medium was added instead of specific stimuli. Alternatively, the cells were seeded into 384-well plates at 2500 cells/well directly together with test compounds or growth factors and WE or medium in a total volume of […].
(§3) At the end of the 72-hour incubation period, supernatants were removed for the determination of IL-1ß, and the cells were fixed with 4% paraformaldehyde (Morphisto) for 15 minutes at room temperature and washed 3 times with PBS. A control plate was fixed after the overnight adherence of the cells (day 1) to determine the starting cell number.
Total cellular protein was determined as a measure of cell number by staining the fixed cells with sulforhodamine B (SRB, Sigma). A 0.4% SRB solution in 1% acetic acid was added to the wells for 30 minutes. The wells were then washed with 1% acetic acid until the wash solution remained colorless. […] The average absorbance of the sample representing the day 1 starting cell number (for 96-well plates) was subtracted from the absorbance values of the WE-treated cells.
All experiments were carried out in triplicate for each sample and concentration, and means±standard deviation (SD) were used for the evaluation of the experiment. Results are expressed as percentage of control values for unstimulated cells.
as §1, §2

[3] = system: macrophages in co-culture with fibroblasts; experiment: Fibroblast-macrophage coculture with wound exudate (FACS, ELISA); format: cell-based, human; details: wound exudate #78; for percentage of live cells in the FACS CD45-gate (macrophages): FIG. 17 A; for macrophage M2 marker CD206: FIG. 17 B; for proinflammatory cytokine IL-1α induced by wound exudate: FIG. 17 C
Description: CD14^+ monocytes, isolated from PBMC of healthy donors by magnetic bead separation were incubated either alone or in the presence of primary human dermal fibroblasts (CellNTec) or fibroblast-derived matrices (FDM). FDM had been generated from primary human dermal fibroblasts by a 3-week incubation with the growth supplements vitamin C or insulin and EGF (vitamin C: 2-phospho-L-ascorbic acid trisodium salt, 100 μg/ml; human EGF, 5 ng/ml; human insulin, 5 μg/ml). Alternatively, fibroblast monolayer cultures can be used as well. After 4 days to a week to allow for macrophage differentiation in the presence or absence of M-CSF (25 ng/ml), the cultures were stimulated overnight with graded concentrations of test compounds in the absence or presence of various dilutions of sterile-filtered WE. IFN-g (50 ng/ml), LPS (100 ng/ml) and IL-4 (25 ng/ml) or combinations thereof served as controls for M1 and M2 macrophage induction. For negative control samples, medium was added instead of specific stimuli. WE were added to the culture medium for overnight stimulation at dilutions ranging from 1:25 to 1:100.
Supernatants were harvested and frozen for cytokine determination by ELISA, and cells were harvested and subjected to FACS analysis, gating on the monocyte population. Geometric means or mean fluorescence intensities (MFI) were used to quantify surface marker expression.
ELISA: CXCL10 and IL-23p19 for M1 macrophages and CCL22 and CCL18 as M2 macrophage markers, IL-1alpha, IL-1beta and TNF-alpha as pro-inflammatory markers indicative of an M1 phenotype.
Cells were harvested and resuspended in FACS buffer (PBS containing 2% FCS). Unspecific antibody binding was prevented by incubation with human Trustain FCR blocking solution (Biolegend, #422302) on ice for 10 minutes. The following fluorchrome-conjugated antibodies from eBioscience (now ThermoFisher Scientific) were used to detect specific surface markers by staining on ice for 30 minutes: CD38-PerCPeFluor710 (#46-0388-42), CD197-APC (#17-1979-42), CD206-AF488 (#53-2069-42), CD209-PerCP Cy5.5 (#45-2099-42). Co-staining with CD45 eFluor (#506 69-0459-42) was used to distinguish macrophages from primary human fibroblasts when analyzed from co-cultures. After washing cells with FACS buffer, they were fixed with 1% paraformaldehyde in PBS and stored at 4° C. in the dark until data were acquired on a Gallios flow cytometer from Beckman Coulter and analyzed with the Kaluza analysis software 1.3.

[4] = system: IL-1ß secretion by primary human dermal fibroblasts; experiment: IL-1ß secretion in the HDF proliferation assay with wound exudate (ELISA); format: cell-based; details: FIG. 20
Description: as §3
IL-1ß levels were determined with a commercial ELISA kit. The amount of IL-1ß contained in the wound exudate added to the cells was subtracted from the total IL-ß in the supernatants in order to determine the cytokine secreted by the cells.

[5] = FIG. 4, 3D fibroblast culture with WE

Compound | formation of fibroblast-derived matrix, optically evaluated by microscopy [1, 5] | 3D fibroblast culture (FDM formation), effect of PARP inhibitors [1] | 2D fibroblast culture (HDF proliferation), effect of PARP inhibitors ([2]; FIG. 8, WE from patient #78) | 2D fibroblast culture (HDF proliferation), effect of PARP inhibitors ([2]; FIG. 9, WE from patient #43) | 2D fibroblast culture (HDF proliferation), effect of PARP inhibitors ([2]; FIG. 10, WE from patient #78) | fibroblast proliferation in the absence of WE [2] | 2D fibroblast culture, PARP inhibitor effect ± dexamethasone ± Vit. C ([2]; FIG. 12, WE from patient #78) | 2D fibroblast culture, PARP inhibitor effect ± dexamethasone ± Vit. C ([2]; FIG. 13, WE from patient #43) | HDF proliferation in the presence of WE #78, combined with PDGF [2] | HDF proliferation in the presence of WE #78 [2] | HDF proliferation in the absence of WE [2] | HDF proliferation with wound exudate #78, plus PDGF [2] | HDF proliferation with wound exudate #78 [2] | wound exudate-induced inhibition of fibroblast proliferation [2] | effect on PDGF-induced induction of proliferation in the absence of WE [2] | percentage of live cells in the FACS CD45-gate (macrophages) [3] | macrophage M2 marker CD206 [3] | proinflammatory cytokine IL-1α induced by wound exudate [3] | wound exudate-induced IL-1ß secretion [4] | other results
Cn1ncnc1[C@H]1c2n[nH]c(=O)c3cc(F)cc(c23)N[C@@H]1c1ccc(F)cc1 [Talazoparib] | “cleaned up” WE-induced fibroblast matrix inhibition | most active of the PARP inhibitors tested in 3D culture | strong and consistent positive effect | strong and consistent positive effect | strong and consistent positive effect | weak inhibitory activity; also recorded: either no effect on fibroblast proliferation in the absence of wound exudate, or only a marginal effect | strongly beneficial effects | strongly beneficial effects | additively or synergistically enhanced by PDGF | induce proliferation | no or even an inhibitory effect | even further enhanced by the addition of PDGF | dose-dependent increase of HDF proliferation | enhanced cell proliferation | either had no effect on PDGF-induced induction of proliferation or showed inhibition of the PDGF effect | dose-dependently increased | dose-dependently increased | reduced | reducing IL-1ß secretion | formation of fibroblast-derived matrix, optically evaluated by microscopy ([1]; FIG. 4, 3D fibroblast culture with WE, listed as talazoparib): particularly strong and beneficial; 3D fibroblast culture (FDM formation), effect of PARP inhibitors ([1]; listed as talazoparib): strong and consistent positive effect
C[C@]1(c2nc3c(C(N)=O)cccc3[nH]2)CCCN1 [Veliparib, 2-((2R)-2-methylpyrrolidin-2-yl)-1H-benzimidazole-4-carboxamide] | “cleaned up” WE-induced fibroblast matrix inhibition | strong and consistent positive effect | strong and consistent positive effect | strong and consistent positive effect | strong and consistent positive effect | either no effect on fibroblast proliferation in the absence of wound exudate, or only a marginal effect | strongly beneficial effects | strongly beneficial effects | additively or synergistically enhanced by PDGF | induce proliferation | no or even an inhibitory effect | even further enhanced by the addition of PDGF | dose-dependent increase of HDF proliferation | enhanced cell proliferation | either had no effect on PDGF-induced induction of proliferation or showed inhibition of the PDGF effect | dose-dependently increased | dose-dependently increased | reduced | reducing IL-1ß secretion | formation of fibroblast-derived matrix, combination with dexamethasone ([1]; FIG. 4, 3D fibroblast culture with WE, microscopy): superior to each substance alone; formation of fibroblast-derived matrix, veliparib and glucocorticoids combined ([1]; FIG. 5, WE of patient #78 (diabetes, immunosuppression after kidney transplantation)): enhances the effect of glucocorticoids; formation of fibroblast-derived matrix, veliparib and glucocorticoids combined ([1]; FIG. 6, WE of patient #49 (non-diabetic, non-immunosuppressed)): could be enhanced with glucocorticoids, but not vice versa; WE-induced inhibition of fibroblast proliferation (2D HDF proliferation) ([2]; FIG. 1, wound exudate #78 (diabetic patient)): completely reversed inhibition of wound exudate (WE)-induced fibroblast proliferation; human dermal fibroblast proliferation (2D), effect of veliparib ([2]; FIG. 2, WE from patients #49, #43, #78, #27): most prominent in the two patients with diabetes; fibroblast 2D culture, reproducibility of effect ([2]; FIG. 3, WE samples #77 and #78 of one patient (day 1 and day 8), patient on prednisolone): reproducible in different samples of the same patient
